Assay results taken from article PMC2857062 (The Journal of biological chemistry, 2010).

What was measured:
[1] = biological target: Dock1 DHR-1 domain (422-619) (Homo sapiens, UniProt Q14185); assay: ITC; assay type: binding
[2] = biological target: Dock1 DHR-1 domain (422-619) (Homo sapiens, UniProt Q14185, D436Y); assay: ITC; assay type: binding
Sequence of Dock1 DHR-1 domain (422-619) (Homo sapiens, UniProt Q14185, D436Y) (Q14185 422-619 D436Y): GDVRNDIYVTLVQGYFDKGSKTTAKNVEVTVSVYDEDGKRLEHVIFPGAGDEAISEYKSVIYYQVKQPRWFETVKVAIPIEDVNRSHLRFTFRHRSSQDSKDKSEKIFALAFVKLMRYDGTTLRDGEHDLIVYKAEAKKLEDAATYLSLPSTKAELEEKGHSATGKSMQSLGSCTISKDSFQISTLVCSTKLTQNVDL

Sequence of Dock1 DHR-1 domain (422-619) (Homo sapiens, UniProt Q14185) (Q14185 422-619): as the sequence (Q14185 422-619 D436Y) above, with Y15D counted along it

| SMILES | Kd [1] [µM] | Kd [2] [µM] |
| --- | --- | --- |
| O=P(O)(O)O[C@H]1[C@H](O)[C@@H](OP(=O)(O)O)[C@H](OP(=O)(O)O)[C@@H](OP(=O)(O)O)[C@H]1O [Ins(1,3,4,5)P4] | 7.7 ± 3 | – |
| CCCCCCCC(=O)OC[C@H](COP(=O)(O)O[C@H]1[C@H](O)[C@@H](OP(=O)(O)O)[C@H](OP(=O)(O)O)[C@@H](OP(=O)(O)O)[C@H]1O)OC(=O)CCCCCCC [di-C8-PtdIns(3,4,5)P3] | – | 3.4 |
